Among the data in patent US7462639B2, “Aminopyrazole derivatives” (Hoffmann-La Roche Inc., priority 2005, dated 2008) are IC50 values, retold here.

Structures are written as SMILES.

By IC50 is commonly meant the point on the concentration scale where inhibition reaches its midpoint.

The test system of the first assay is HCT 116 cells. Description: Viability assay in HCT 116 cells (CellTiter-Glo). The settings on record: 120 h; HCT 116 human colon carcinoma cells, 5 days incubation, ATP luminescence readout. It is filed as cell-based. The method, then: A viability assay was performed using the CellTiter-Glo® Luminescent Cell Viability Assay (see Promega Corporation's Technical Bulletin No. 288, pp. 1-11 [revised 2/04] which is hereby incorporated by reference in its entirety). This assay is a homogeneous method of determining the number of viable cells in culture based on quantitation of the ATP present, an indicator of metabolically active cells. The assay is designed for use with multiwell formats, making it ideal for automated high-throughput screening (HTS), cell proliferation and cytotoxicity assays. The homogeneous assay procedure involves adding a single reagent (containing luciferase, luciferan substrate, and buffer) directly to cells cultured in serum-supplemented medium. Cell washing, removal of medium and multiple pipetting steps are not required. The system detects as few as 15 cells/well in a 384-well format in 10 minutes after adding reagent and mixing.
The homogeneous “add-mix-measure” format results in cell lysis and generation of a luminescent signal proportional to the amount of ATP present. The amount of ATP is directly proportional to the number of cells present in culture. The above-referenced assay generates a “glow-type” luminescent signal, produced by the luciferase reaction, which has a half-life generally greater than five hours, depending on cell type and medium used. The extended half-life eliminates the need to use reagent injectors and provides flexibility for continuous or batch mode processing of multiple plates. The unique homogeneous format avoids errors that may be introduced by other ATP measurement methods that require multiple steps.
HCT 116 cells (human colon carcinoma, ATCC-No. CCl-247) were cultivated in RPMI 1640 medium with GlutaMAX™ I (cell culture media that contains L-Alanyl-L-Glutamine [a stabilized a form/source of L-Glutamine] from Invitrogen, Cat-No. 61870-010), 2.5% Fetal Calf Serum (FCS, Sigma Cat-No. F4135 (FBS)); 100 Units/ml penicillin/100 μg/ml streptomycin (=Pen/Strep from Invitrogen Cat. No. 15140). For the assay the cells were seeded in 384 well plates, 1000 cells per well, in the same medium. The next day the test compounds were added in various concentrations ranging from 30 μM to 0.0015 μM (10 concentrations, 1:3 diluted). After 5 days the viability assay was done according to the instructions of the manufacturer. In brief: the cell-plate was equilibrated to room temperature for approximately 30 minutes and then reagent (containing luciferase, luciferan substrate, and buffer) was added. The contents were carefully mixed for 15 minutes to induce cell lysis. After 45 minutes the luminescent signal was measured in Victor 2, (scanning multiwell spectrophotometer, Wallac).
Medium: RPMI 1640 with cell culture media containing L-Alanyl-L-Glutamine [GlutaMAX™ I (Invitrogen, Cat-No. 61870)], 5% FCS (Sigma Cat.-No. F4135), Pen/Strep (Invitrogen, Cat No. 15140).
HCT116 (ATCC-No. CCl-247): 1000 cells in 60 μl per well of 384 well plate (Greiner 781098, μClear-plate white)
After seeding incubate plates 24 h at 37° C., 5% CO2
2nd. Day: Induction (Treatment with Compounds, 10 Concentrations):
In order to achieve a final concentration of 30 μM as highest concentration […] of 10 mM compound stock solution were added directly to […] media. Then step d) of the dilution procedure described below, was followed. […]
For the molecule `CCN1C(=O)C(C)(C)c2cc3[nH]c(-c4n[nH]cc4NC(=O)N(C)C)nc3cc21` [Example E-10, 3-[3-(5-Ethyl-7,7-dimethyl-6-oxo-1,5,6,7-tetrahydro-imidazo[4,5-f]indol-2-yl)-1H-pyrazol-4-yl]-1,1-dimethyl-urea], the concentration for half-maximal inhibition (IC50) was 61 nM.

Molecule `CCN1C(=O)C(C)(C)c2cc3[nH]c(-c4n[nH]cc4NC(=O)OC)nc3cc21` [Example E-6, [3-(5-Ethyl-7,7-dimethyl-6-oxo-1,5,6,7-tetrahydro-imidazo[4,5-f]indol-2-yl)-1H-pyrazol-4-yl]-carbamic acid methyl ester] returned a concentration for half-maximal inhibition (IC50) of 378 nM.

Consider `CCN1C(=O)C(C)(C)c2cc3[nH]c(-c4n[nH]cc4NC(C)=O)nc3cc21` [Example A-1, N-[3-(5-Ethyl-7,7-dimethyl-6-oxo-1,5,6,7-tetrahydro-imidazo[4,5-f]indol-2-yl)-1H-pyrazol-4-yl]-acetamide], for which the half-maximal inhibitory concentration (IC50) was determined as 311 nM.

`CCN(CCN(C)C)C(=O)Nc1c[nH]nc1-c1nc2cc3c(cc2[nH]1)C(C)(C)C(=O)N3CC` [Example F-4, 1-(2-Dimethylamino-ethyl)-1-ethyl-3-[3-(5-ethyl-7,7-dimethyl-6-oxo-1,5,6,7-tetrahydro-imidazo[4,5-f]indol-2-yl)-1H-pyrazol-4-yl]-urea]: half-maximal inhibition (IC50) was put at 28 nM.

Regarding `CCN1C(=O)C(C)(C)c2cc3[nH]c(-c4n[nH]cc4NC(=O)c4cccnc4)nc3cc21` [Example B-3, N-[3-(5-Ethyl-7,7-dimethyl-6-oxo-1,5,6,7-tetrahydro-imidazo[4,5-f]indol-2-yl)-1H-pyrazol-4-yl]-nicotinamide], half-maximal inhibition (IC50) was put at 57 nM.

Regarding `CCN1C(=O)C(C)(C)c2cc3[nH]c(-c4n[nH]cc4NC(=O)COC)nc3cc21` [Example B-22, N-[3-(5-Ethyl-7,7-dimethyl-6-oxo-1,5,6,7-tetrahydro-imidazo[4,5-f]indol-2-yl)-1H-pyrazol-4-yl]-2-methoxy-acetamide], the IC50 was determined as 99 nM.

The assay is the same for the next values; noted with them: HCT 116 human colon carcinoma cells, 5 days incubation, ATP luminescence readout.
`CCN1C(=O)C(C)(C)c2cc3[nH]c(-c4n[nH]cc4NC(=O)c4ccc5c(c4)OCCO5)nc3cc21` [Example C-13, 2,3-Dihydro-benzo[1,4]dioxine-6-carboxylic acid[3-(5-ethyl-7,7-dimethyl-6-oxo-1,5,6,7-tetrahydro-imidazo[4,5-f]indol-2-yl)-1H-pyrazol-4-yl]-amide]: the IC50 worked out at 63 nM.

The target in another assay is T1, Aurora A kinase (Homo sapiens, UniProt O14965).
T1 sequence (O14965 1-403): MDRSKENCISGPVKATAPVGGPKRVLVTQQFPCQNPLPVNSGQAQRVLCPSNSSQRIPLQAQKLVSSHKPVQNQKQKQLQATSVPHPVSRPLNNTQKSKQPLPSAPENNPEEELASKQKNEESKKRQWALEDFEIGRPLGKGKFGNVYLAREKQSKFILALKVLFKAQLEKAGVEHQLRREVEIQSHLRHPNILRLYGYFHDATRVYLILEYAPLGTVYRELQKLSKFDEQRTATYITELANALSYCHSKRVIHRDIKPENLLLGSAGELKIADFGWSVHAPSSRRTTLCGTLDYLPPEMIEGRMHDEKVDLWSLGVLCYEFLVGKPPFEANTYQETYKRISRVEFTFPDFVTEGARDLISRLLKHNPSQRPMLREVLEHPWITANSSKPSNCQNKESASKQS
Description: IC50 determination for inhibitors of Aurora A (ELISA-type kinase assay). It is filed as biochemical. The settings on record: GST-Histone H3 substrate, mutant Aurora A kinase, 30 μM ATP, 40 minutes, read-out: IC50 Aurora A kinase inhibition. The protocol:
Aurora A is a serine threonine kinase involved in spindle assembly and chromosome segregation. The assay is a typically ELISA-type assay where substrate (GST-Histone H3) is coupled to the assay-plate and is phosphorylated by the kinase. Phosphorylation is detected by a mouse anti-Phosphopeptid mAb and an HRP-labeled anti-mouse pAb. The assay is validated for IC50-determination.
Kinase activities were measured by Enzyme-Linked Immunosorbent Assay (ELISA): Maxisorp 384-well plates (Nunc) were coated with recombinant fusion protein comprising residues 1-15 of HistoneH3 fused to the N-terminus of Glutathione-S-Transferase. Plates were then blocked with a solution of 1 mg/mL I-block (a highly purified form of casein, Tropix cat. no. T2015) in phosphate-buffered saline. Kinase reactions were carried out in the wells of the ELISA plate by combining an appropriate amount of mutant Aurora A kinase with test compound and 30 μM ATP. The reaction buffer was 10× Kinase Buffer (Cell Signaling cat. no. 9802) supplemented with 1 μg/mL I-block. Reactions were stopped after 40 minutes by addition of 25 mM EDTA. After washing, substrate phosphorylation was detected by addition of anti-phospho-Histone H3 (Ser 10) 6G3 mAb (Cell Signaling cat. no. 9706) and sheep anti-mouse pAb-HRP (Amersham cat# NA931V), followed by colorimetric development with TMB (3,3′,5,5′-tetramethylbenzidine from Kirkegaard & Perry Laboratories). After readout of the adsorbance, IC50 values were calculated using a non-linear curve fit (XLfit software (ID Business Solution Ltd., Guilford, Surrey, UK)).
Consider `CCN1C(=O)C(C)(C)c2cc3[nH]c(-c4n[nH]cc4NC(=O)CC(C)C)nc3cc21` [Example B-20, N-[3-(5-Ethyl-7,7-dimethyl-6-oxo-1,5,6,7-tetrahydro-imidazo[4,5-f]indol-2-yl)-1H-pyrazol-4-yl]-3-methyl-butyramide], for which the half-maximal inhibitory concentration (IC50) was 2 nM.

In the case of `CCN1C(=O)C(C)(C)c2cc3nc(-c4n[nH]cc4NS(C)(=O)=O)[nH]c3cc21` [Example H-2, N-[3-(5-Ethyl-7,7-dimethyl-6-oxo-3,5,6,7-tetrahydro-imidazo[4,5-f]indol-2-yl)-1H-pyrazol-4-yl]-methanesulfonamide], the IC50 came out at 24 nM.

As for `CCN1C(=O)C(C)(C)c2cc3[nH]c(-c4n[nH]cc4NC(=O)N4CCC(OC)CC4)nc3cc21` [Example F-6], the IC50 was found to be 11 nM.

On to `CCN(CC)C(=O)Nc1c[nH]nc1-c1nc2cc3c(cc2[nH]1)C(C)(C)C(=O)N3CC` [Example E-8, 1,1-Diethyl-3-[3-(5-ethyl-7,7-dimethyl-6-oxo-1,5,6,7-tetrahydro-imidazo[4,5-f]indol-2-yl)-1H-pyrazol-4-yl]-urea], for which the IC50 came to 1 nM.

With `CCN1C(=O)C(C)(C)c2cc3[nH]c(-c4n[nH]cc4NC(=O)OCc4ccccc4)nc3cc21` [Example E-5, [3-(5-Ethyl-7,7-dimethyl-6-oxo-1,5,6,7-tetrahydro-imidazo[4,5-f]indol-2-yl)-1H-pyrazol-4-yl]-carbamic acid benzyl ester], the IC50 amounted to 19 nM.

`CCN1C(=O)C(C)(C)c2cc3[nH]c(-c4n[nH]cc4NC(=O)c4cnccn4)nc3cc21` [Example C-11, Pyrazine-2-carboxylic acid[3-(5-ethyl-7,7-dimethyl-6-oxo-1,5,6,7-tetrahydro-imidazo[4,5-f]indol-2-yl)-1H-pyrazol-4-yl]-amide]: the IC50 came to 3 nM.

Regarding `CCN1C(=O)C(C)(C)c2cc3[nH]c(-c4n[nH]cc4NC(=O)C(F)(F)F)nc3cc21` [Example A-5, N-[3-(5-Ethyl-7,7-dimethyl-6-oxo-1,5,6,7-tetrahydro-imidazo[4,5-f]indol-2-yl)-1H-pyrazol-4-yl]-2,2,2-trifluoro-acetamide], the IC50 came out at 29 nM.

Turning to `CCN1C(=O)C(C)(C)c2cc3[nH]c(-c4n[nH]c(C)c4NCc4ccccc4)nc3cc21` [Example G-2, 2-(4-Benzylamino-5-methyl-1H-pyrazol-3-yl)-5-ethyl-7,7-dimethyl-5,7-dihydro-1H-imidazo[4,5-f]indol-6-one], the concentration for half-maximal inhibition (IC50) came out at 32 nM.
